Experimental data from article PMC8129133, “Polymer-free corticosteroid dimer implants for controlled and sustained drug delivery” (Nature Communications, 2021).
Several values for one entry are separate records, joined by “and”; a condition that tells them apart may be missing. Identical values can stand only once.

How the values were obtained:
[1] = rabbit, in vivo
Protocol: Analysis of samples was conducted using a SCIEX API 5000 mass spectrometer (Applied Biosystems/MDS Sciex), Shimadzu LC-20ADXR HPLC pumps, Shimadzu SCL-10A controller, and HTS-PAL autoinjector (CTC Analytics). Chromatography was performed using a Waters X-Bridge C-18 (3.5 µm; 100 × 2.1 mm) column equipped with a Phenomenex KrudKatcher ULTRA HPLC In-Line Filter (Part AF0-8497). The column was held at a temperature of 40 °C, while the autosampler compartment was maintained at 4 °C. Mobile phases consisted of: (A) 95:5 H2O:MeOH with 2 mM Ammonium Acetate (NH4OAc) and (B) 85:10:5 MeOH:H2O:MeCN with 2 mM NH4OAc. A gradient elution profile was employed, following the trend of: (0 min 30% B), (0.50 min 30% B), (2.50 min 65% B), (2.51 min 100% B), (4.50 min 100% B), (4.51 min 30% B), (6.50 min 30% B). Flow was constant at 0.6 mL min^-1 with an injection volume of 10 µL. For MS parameters, the system was operated in positive ion mode with a TurboIonSpray probe monitoring transitions (±0.2 AMU) of m/z 393.2 → 373.2 for Dex and 397.3 → 377.2 for the Dex-d4 deuterated internal standard. Analyst Version 1.4.2 (Applied Biosystems-MDS Sciex) was used for instrument control, data acquisition, and peak integrations, while calculations including peak area ratios, standard curve regressions, sample concentration values, and descriptive statistics were performed with the assistance of the ALIS2004 validated LIMS.
Dex and internal standard (Dex-d4) were extracted from vitreous humor on ice using protein precipitation. Samples were initially centrifuged at approximately 1500 rcf for 5 min to remove any interfering particulates. Stepwise, the protocol for extraction from vitreous humor was to (1) pipette 50 µL of vitreous humor into an extraction tube; (2) add 13 µL H2O and vortex to mix; (3) add 25 µL internal standard spiking solution (100 ng/mL Dex-d4 in a 1:1 solvent of MeOH:H2O); (4) add 25 µL of make-up reagent (1:1 mixture of MeOH:H2O); (5) vortex mix for 5-10 s at a speed setting of 4 or 5; (6) centrifuge at ~60 rcf for 2 min; (7) add 300 µL of 9:1 MeOH:5 mM NH4OAc at pH 7 to precipitate proteins; (8) cap and vortex mix at full speed for 2 min; (9) Centrifuge at approximately 2700 rcf for 5 min; (10) transfer 300 µL of supernatant to a separate tube; (11) vortex the collected supernatant for 30 s at a low to moderate speed; (12) centrifuge at ~1500 rcf for 5 min; (13) store prepared extract at 4 °C until analysis by LC-MS/MS.
Pharmacokinetics. […] Animals were anesthetized with ketamine (up to ~50 mg/kg) and xylazine (up to ~10 mg/kg). Eyes were surgically prepared before intravitreal procedures with 5% betadine and topical anesthetic eye drops (proparacaine hydrochloride, 0.5%). Prior to test article administration, pupils were dilated with topical application of one drop each of 10% phenylephrine and 1% tropicamide on each cornea.
Implants (30 G × 6 mm Dex-TEG-Dex extruded rods, Ozurdex®) were injected (30 G needle for Dex-TEG-Dex, 22 G needle for Ozurdex®) intravitreally into the eyes of New Zealand White rabbits (female, 1.5–2.5 kg) with terminal timepoints of 1 and 2 weeks and 1, 2, 3, 6, 9, 12, and 14 months. Ocular tissues and plasma were collected at each timepoint and analyzed for Dex by LC/MS/MS. Whole globe eyes were collected into centrifuge tubes and remained frozen for a minimum of 24 h before dissection and tissue collection. During dissection, vitreous humor containing any remaining test article was collected frozen into pre-weighed centrifuge tubes and stored at −80 °C until further processing.

[2] = system: vascular endothelial growth factor (VEGF) induced blood-retinal barrier breakdown; assay: Rabbit pharmacodynamics, VEGF-induced vascular leakage; assay type: in vivo, Dutch Belted rabbits; parameters: key to FA Scoring: 0: major vessels straight, some tortuosity of smaller vessels, no vessel dilation; 1: increased tortuosity of major vessels and/or some vessel dilation; 2: leakage between major vessels, significant vessel dilation; 3: leakage between major and minor vessels, minor vessels still visible; 4: leakage between major and minor vessels, minor vessels poorly/not visible; settings: single eyes, Fig 9b
Protocol: Pharmacodynamics. Rabbit pharmacodynamics studies were performed at Absorption Systems California (San Diego, CA, USA). All studies were conducted in compliance with relevant ethical regulations, including the USDA Animal Welfare Act (i.e., relevant sections of Section 9, Part 1, 2, and 3 of the Code of Federal Regulations) and in compliance with Absorption Systems’ Animal Welfare Assurance filed with the National Institutes of Health. Protocols were reviewed and approved by Absorption Systems’ Institutional Animal Care and Use Committee (IACUC) prior to the initiation of procedures. Treatment of animals was in accordance with conditions specified in the Guide for Care and Use of Laboratory Animals (NRC, 2011, National Academy Press). Animals were anesthetized with intramuscular ketamine hydrochloride (15-20 mg/kg) and xylazine (5 mg/kg) prior to test article injection or vascular leakage induction. The eye area was surgically prepped with 5% betadine and rinsing with balanced salt solution, followed by administration of 1–2 drops of topical proparacaine hydrochloride (0.5%). […] Test articles (27 G × 6 mm, 30 G × 6 mm, and 32 G × 6 mm Dex-TEG-Dex extruded rods, or Ozurdex®) were injected intravitreally in Dutch Belted rabbits (male, 1.84–2.49 kg, 5–6 months) on Day 0 and vascular leakage was induced by an intravitreal injection of VEGF (500 ng/eye) at acute and chronic timepoints (1 week, 2.5, 4.5, 6, 9, 12, and/or 18 months) post-implantation. Post-injection analgesia was provided by 0.02-0.05 mg/kg IM/SC buprenorphine. Negative control rabbits received a sham injection while positive control rabbits received a 2 mg solution dose of triamcinolone acetonide (Kenalog-40). Ophthalmic exams, including fundus microscopy and slit lamp microscopy, were carried out over the 3 days post-VEGF induction and vascular leakage was measured by fluorescein angiography on the third day post-VEGF induction. Eyes were graded based on fundus and fluorescein angiography images using a scoring system as follows[76]: 0 – major vessels straight, some tortuosity of smaller vessels, no vessel dilation; 1 – increased tortuosity of major vessels and/or some vessel dilation; 2 – leakage between major vessels, significant vessel dilation; 3 – leakage between major and minor vessels, minor vessels still visible; and 4 – leakage between major and minor vessels, minor vessels poorly/not visible.

[3] = cited from earlier work

CC1CC2C3CCC4=CC(=O)C=CC4(C)C3(F)C(O)CC2(C)C1(O)C(=O)COC(=O)OCCOCCOCCOC(=O)OCC(=O)C1(O)C(C)CC2C3CCC4=CC(=O)C=CC4(C)C3(F)C(O)CC21C (stereo not shown) [Dex-TEG-Dex 30G x 6 mm implant]
Dex in aqueous humor (ng/ml) [1]: BQL | Dex in retina (ng/g) [1]: BQL | Dex in vitreous humor (ng/ml) [1]: BQL

CC1CC2C3CCC4=CC(=O)C=CC4(C)C3(F)C(O)CC2(C)C1(O)C(=O)COC(=O)OCCOCCOCCOC(=O)OCC(=O)C1(O)C(C)CC2C3CCC4=CC(=O)C=CC4(C)C3(F)C(O)CC21C (stereo not shown) [Dex-TEG-Dex (30G x 6 mm implant)]
FA Scoring ([2]; 7 days): 0 | FA Scoring ([2]; 136 days): 0 | FA Scoring ([2]; 360 d): 2 and 3 and 4 and 0 and 1

OCCOCCOCCO [TEG, triethylene glycol]
toxicity by systemic routes of administration [3]: no significant adverse toxicity
